How the values were obtained:
[1] = molecular target: BaF3(WT) (Homo sapiens, UniProt P00519); experiment: WST (CCK-8) anti-proliferative assay, BaF3 WT; conditions: read-out: BaF3(WT); BaF3 WT cells, 72 h treatment, CCK-8 readout OD 450 nm
[2] = molecular target: BaF3 (T315I mutant) (Homo sapiens, UniProt P00519, T315I, cells depend on it); experiment: WST (CCK-8) anti-proliferative assay, BaF3 T315I mutant; conditions: read-out: BaF3 (T315I mutant), 72 h treatment, CCK-8 readout OD 450 nm

Row | GI50 [1] | GI50 [2] | SMILES
1 | 0.014 µM | 0.071 µM | CC(=O)NC1CCC2c3cc(C(=O)Nc4ccc(OC(F)(F)Cl)cc4)cc(-c4ccn[nH]4)c3N(C(C)C)C12 (centres unmarked) [Compound 4, 3-acetamido-N-(4-(chlorodifluoromethoxy)phenyl)-4-isopropyl-5-(1H-pyrazol-5-yl)-1,2,3,3a,4,8b-hexahydrocyclopenta[b]indole-7-carboxamide]
2 | 0.015 µM | 0.183 µM | CC(C)N1c2c(-c3ccn[nH]3)cc(C(=O)Nc3ccc(OC(F)(F)Cl)cc3)cc2C2CCC(NS(=O)(=O)C3CCOCC3)C21 (centres unmarked) [Compound 25]
3 | 0.034 µM | 0.144 µM | CNS(=O)(=O)NC1CCC2c3cc(C(=O)Nc4ccc(OC(F)(F)Cl)cc4)cc(-c4ccn[nH]4)c3N(C(C)C)C12 (centres unmarked) [Compound 5]
4 | 0.177 µM | 1.26 µM | CC(C)N1c2c(-c3ccn[nH]3)cc(C(=O)Nc3ccc(OC(F)(F)Cl)cc3)cc2C2CCC(NC(=O)C3CN(C)C3)C21 (centres unmarked) [Compound 29, N-(4-(chlorodifluoromethoxy)phenyl)-4-isopropyl-3-(1-methylazetidine-3-carboxamido)-5-(1H-pyrazol-5-yl)-1,2,3,3a,4,8b-hexahydrocyclopenta[b]indole-7-carboxamide]

— patent publication US11987575B2, “Tricyclic compounds as BCR-ABL inhibitors” (ASCENTAGE PHARMA (SUZHOU) CO., LTD., priority 2019, dated 2024)
